Results on 23 compounds are retold here after patent publication US20250009742A1 (priority 2021, published 2025).

Where two headings read alike, the source gives them in different places. Where only a bound is given, the exact number is not on record here.

Data set [1] is described as follows: Cell viability assay (EZ-Cytox), cytotoxicity. In kind it is cell-based. To be noted: human, HepAD38 cells; for viability at 65 h, 100 µM: read-out: Cytotoxicity % Livability (@100 μM). The method, then: HepAD38 cells were cultured for 2 days in Dulbecco's Modified Eagle's medium (Welgene, LM001-05) supplemented with 10% FBS without tetracycline. […] After 65 hours of treatment, viability was measured using EZ-Cytox cell viability assay kit (Daeil Lab Service) according to the manufacturer's instructions. The absorbance was measured at 450 nm using a spectrophotometer (Spark, Tecan).

The test system of data set [2] is intracellular HBV DNA. Nature of the data set: Real-time PCR for intracellular HBV DNA in HepAD38 cells. To be noted: 65 hours treatment. Format: cell-based.
The target of data set [3] is Protein (Hepatitis B virus genotype D subtype ayw, UniProt P03146). The experiment in a line: Protein inhibition rate / EC50 (Table 1, no method described). To be noted: for inhibition at 3 µM: @3 μM (footnote *). In kind it is biochemical.
The mark [4] stands for this setting: Hepatitis B virus, HePAD38, 65 h.

Protein, sequence (P03146 whole entry): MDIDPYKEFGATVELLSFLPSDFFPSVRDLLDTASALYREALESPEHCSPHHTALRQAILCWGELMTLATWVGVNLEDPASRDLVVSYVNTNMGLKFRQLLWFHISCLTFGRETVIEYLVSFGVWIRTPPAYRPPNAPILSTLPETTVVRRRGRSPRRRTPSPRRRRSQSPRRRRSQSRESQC

As to `O=C(Nc1ccc(F)c(Cl)c1)N(Cc1n[nH]c2c1CCCC2)c1ccc(=O)[nH]c1` [Example 14, 3-(3-chloro-4-fluorophenyl)-1-(6-oxo-1,6-dihydropyridin-3-yl)-1-((4,5,6,7-tetrahydro-1H-indazol-3-yl)methyl)urea], in data set [1], the cytotoxic concentration (CC50) at 65 h is over 100 µM and the viability at 65 h, 100 µM worked out at 95.4%. The same compound gave an IC50 in data set [2] (setting [4]) of 0.11 µM. In data set [3], this compound displayed an EC50 of 7.3 µM and an inhibition at 30 µM of 14%.
In the case of `O=C(Nc1ccc(F)c(Cl)c1)N(Cc1n[nH]c2c1CCCC2)c1cc[nH]c(=O)c1` [Example 15, 3-(3-chloro-4-fluorophenyl)-1-(2-oxo-1,2-dihydropyridin-4-yl)-1-((4,5,6,7-tetrahydro-1H-indazol-3-yl)methyl)urea], in data set [1], the CC50 at 65 h is over 100 µM and the viability at 65 h, 100 µM was found to be 84%. This compound displayed an IC50 in data set [2] (setting [4]) of 0.31 µM. In data set [3], the response was half-maximal at 1.4 µM (EC50) and the inhibition at 30 µM was found to be 64.7%.
Turning to `COC(=O)c1ccc(N(Cc2n[nH]c3c2CCCC3)C(=O)Nc2ccc(F)c(Cl)c2)cc1` [Example 31, methyl 4-(3-(3-chloro-4-fluorophenyl)-1-((4,5,6,7-tetrahydro-1H-indazol-3-yl)methyl)ureido)benzoate], in data set [1], the CC50 at 65 h is over 100 µM and the viability at 65 h, 100 µM turned out to be 91.2%. The compound also displayed an IC50 in data set [2] (setting [4]) of 0.41 µM. In data set [3], this compound came in with an EC50 of 3.3 µM and an inhibition at 30 µM of 90.4%.
Regarding `COc1ccc(N(Cc2n[nH]c3c2CCCC3)C(=O)Nc2ccc(F)c(Cl)c2)cc1` [Example 32, 3-(3-chloro-4-fluorophenyl)-1-(4-methoxyphenyl)-1-((4,5,6,7-tetrahydro-1H-indazol-3-yl)methyl)urea], in data set [1], the CC50 at 65 h is 81.4 µM and the viability at 65 h, 100 µM came out at 4.1%. Besides, the midpoint of inhibition in data set [2] (setting [4]), the IC50, lay at 0.0099 µM. In addition, in data set [3], it took 9.4 µM to reach a half-maximal effect (EC50) and the inhibition at 30 µM was determined as 5%.
`COc1ccc(N(Cc2n[nH]c3c2CN(C(C)=O)CC3)C(=O)Nc2ccc(F)c(Cl)c2)cc1` [Example 33, 1-((5-acetyl-4,5,6,7-tetrahydro-1H-pyrazolo[4,3-c]pyridin-3-yl)methyl)-3-(3-chloro-4-fluorophenyl)-1-(4-methoxyphenyl)urea]: the viability at 65 h, 100 µM in data set [1] was 96%. The same compound displayed an IC50 in data set [2] (setting [4]) of over 1.1 µM. In data set [3], 30 µM produced 77.8% inhibition.
As for `COc1ccc(N(Cc2cc[nH]n2)C(=O)Nc2ccc(F)c(Cl)c2)cc1` [Example 34, 1-((1H-pyrazol-3-yl)methyl)-3-(3-chloro-4-fluorophenyl)-1-(4-methoxyphenyl)urea], the viability at 65 h, 100 µM in data set [1] turned out to be 92.9%. The IC50 in data set [2] (setting [4]) was over 1.1 µM. In data set [3], this compound had an inhibition at 30 µM of 55.2%.
On to `COc1ccc(N(Cc2ccn(C)n2)C(=O)Nc2ccc(F)c(Cl)c2)cc1` [Example 35, 3-(3-chloro-4-fluorophenyl)-1-(4-methoxyphenyl)-1-((1-methyl-1H-pyrazol-3-yl)methyl)urea], for which the viability at 65 h, 100 µM in data set [1] came out at 90.5%. Moreover, in data set [2] (setting [4]), the half-inhibitory concentration (IC50) is over 1.1 µM. 30 µM produced 33.7% inhibition in data set [3].
In the case of `COc1ccc(N(Cc2nn(C)c3c2CCCC3)C(=O)Nc2ccc(F)c(Cl)c2)cc1` [Example 36, 3-(3-chloro-4-fluorophenyl)-1-(4-methoxyphenyl)-1-((1-methyl-4,5,6,7-tetrahydro-1H-indazol-3-yl)methyl)urea], in data set [1], the CC50 at 65 h was over 100 µM and the viability at 65 h, 100 µM stood at 100%. For the same compound, in data set [2] (setting [4]), it took 0.036 µM to reach half-maximal inhibition (IC50). In data set [3], this compound displayed an EC50 of 9.2 µM and an inhibition at 30 µM of 91.6%.
On to `COc1ccc(N(Cc2n[nH]c3c2CN(C)CC3)C(=O)Nc2ccc(F)c(Cl)c2)cc1` [Example 37, 3-(3-chloro-4-fluorophenyl)-1-(4-methoxyphenyl)-1-((5-methyl-4,5,6,7-tetrahydro-1H-pyrazolo[4,3-c]pyridin-3-yl)methyl)urea], for which the viability at 65 h, 100 µM in data set [1] came to 22.4%. The compound further yielded an IC50 in data set [2] (setting [4]) of over 1.1 µM. Testing at 30 µM in data set [3] gave an inhibition of 28.3%.
Take `COc1ccc(N(Cc2n[nH]c3c2COCC3)C(=O)Nc2ccc(F)c(Cl)c2)cc1` [Example 38, 3-(3-chloro-4-fluorophenyl)-1-(4-methoxyphenyl)-1-((1,4,6,7-tetrahydropyrano[4,3-c]pyrazol-3-yl)methyl)urea]: in data set [1], the CC50 at 65 h is over 100 µM and the viability at 65 h, 100 µM turned out to be 104%. For the same compound, the IC50 in data set [2] (setting [4]) came to 0.018 µM. In data set [3], this compound had an EC50 of 1.6 µM and an inhibition at 30 µM of 80%.
For `COc1ccc(N(Cc2n[nH]c3c2CC(F)(F)CC3)C(=O)Nc2ccc(F)c(Cl)c2)cn1` [Example 40, 3-(3-chloro-4-fluorophenyl)-1-((5,5-difluoro-4,5,6,7-tetrahydro-1H-indazol-3-yl)methyl)-1-(6-methoxypyridin-3-yl)urea], in data set [1], the midpoint of cytotoxicity, the CC50 at 65 h, lay at 82.5 µM and the viability at 65 h, 100 µM came out at 4.6%. Moreover, in data set [2] (setting [4]), the 50% inhibitory concentration (IC50) amounted to 0.016 µM. In data set [3], the EC50 is 3.8 µM and 30 µM produced 99.5% inhibition.
As for `COc1ccc(N(Cc2n[nH]c3c2CCC3)C(=O)Nc2ccc(F)c(Cl)c2)cn1` [Example 41, 3-(3-chloro-4-fluorophenyl)-1-(6-methoxypyridin-3-yl)-1-((1,4,5,6-tetrahydrocyclopenta[c]pyrazol-3-yl)methyl)urea], in data set [1], the CC50 at 65 h was over 100 µM and the viability at 65 h, 100 µM came out at 97.8%. The half-maximal inhibitory concentration (IC50) in data set [2] (setting [4]) came out at 0.018 µM. In data set [3], this compound came in with a concentration giving a half-maximal response (EC50) of 2.6 µM and an inhibition at 3 µM of 59%.
The corresponding values for `COc1ccc(N(Cc2n[nH]c3c2CCCC3)C(=O)Nc2ccc(F)c(Cl)c2)cn1` [Example 42, 3-(3-chloro-4-fluorophenyl)-1-(6-methoxypyridin-3-yl)-1-((4,5,6,7-tetrahydro-1H-indazol-3-yl)methyl)urea] are over 100 µM, 99.5%, 0.037 µM, 4.3 µM and 13%.
Consider `COc1ccc(N(Cc2cc(C)nn2C)C(=O)Nc2ccc(F)c(Cl)c2)cc1` [Example 108, 3-(3-chloro-4-fluorophenyl)-1-((1,3-dimethyl-1H-pyrazol-5-yl)methyl)-1-(4-methoxyphenyl)urea], for which 0.36 µM corresponded to half-maximal inhibition in data set [2] (setting [4]) (IC50). In data set [3], this compound displayed an EC50 of 5.3 µM and an inhibition at 30 µM of 89.9%.
`COc1ccc(N(Cc2cn(C)nc2C)C(=O)Nc2ccc(F)c(Cl)c2)cc1` [Example 159, 3-(3-chloro-4-fluorophenyl)-1-((1,3-dimethyl-1H-pyrazol-4-yl)methyl)-1-(4-methoxyphenyl)urea] gave an IC50 in data set [2] (setting [4]) of over 3.3 µM. This compound also displayed an inhibition at 30 µM in data set [3] of 4%.
On to `COC12CC(N(Cc3cc(C(F)(F)F)[nH]n3)C(=O)Nc3ccc(F)c(C(F)F)n3)(C1)C2` [Example 214, 3-(6-(difluoromethyl)-5-fluoropyridin-2-yl)-1-(3-methoxybicyclo[1.1.1]pentan-1-yl)-1-((5-(trifluoromethyl)-1H-pyrazol-3-yl)methyl)urea], for which, in data set [1], the CC50 at 65 h was over 100 µM and the viability at 65 h, 100 µM was 76.8%. Half-maximal inhibition in data set [2] (setting [4]) (IC50) was put at 0.22 µM.
Regarding `COc1ncc(N(Cc2cc(C#N)[nH]n2)C(=O)Nc2ccc(F)c(C(F)(F)F)c2)cn1` [Example 215, 1-((5-cyano-1H-pyrazol-3-yl)methyl)-3-(4-fluoro-3-(trifluoromethyl)phenyl)-1-(2-methoxypyrimidin-5-yl)urea], in data set [1], the CC50 at 65 h is over 100 µM and the viability at 65 h, 100 µM turned out to be 67%. The compound further displayed a half-maximal inhibitory concentration (IC50) in data set [2] (setting [4]) of 0.02 µM.
The corresponding values for `COc1ncc(N(Cc2cc(C(F)(F)F)[nH]n2)C(=O)Nc2cc(F)c(F)c(F)c2)cn1` [Example 219, 1-(2-methoxypyrimidin-5-yl)-1-((5-(trifluoromethyl)-1H-pyrazol-3-yl)methyl)-3-(3,4,5-trifluorophenyl)urea] are over 100 µM, 53.7% and 0.012 µM.
On to `COC12CC(N(Cc3cc(C(F)(F)F)[nH]n3)C(=O)Nc3cc(F)c(F)c(F)c3)(C1)C2` [Example 222, 1-(3-methoxybicyclo[1.1.1]pentan-1-yl)-1-((5-(trifluoromethyl)-1H-pyrazol-3-yl)methyl)-3-(3,4,5-trifluorophenyl)urea], for which, in data set [1], half-maximal cytotoxicity (CC50 at 65 h) was put at 31.7 µM and the viability at 65 h, 100 µM was determined as 2.5%. In data set [2] (setting [4]), this compound yielded an IC50 of 0.12 µM.
With `COc1ncc(N(Cc2cc(C#N)[nH]n2)C(=O)Nc2cc(F)c(F)c(F)c2)cn1` [Example 223, 1-((5-cyano-1H-pyrazol-3-yl)methyl)-1-(2-methoxypyrimidin-5-yl)-3-(3,4,5-trifluorophenyl)urea], in data set [1], the CC50 at 65 h was over 100 µM and the viability at 65 h, 100 µM worked out at 87.5%. The compound further registered an IC50 in data set [2] (setting [4]) of 0.07 µM.
The corresponding values for `COc1ncc(N(Cc2cc(C(F)(F)F)[nH]n2)C(=O)Nc2cc(F)c(F)c(F)n2)cn1` [Example 224, 1-(2-methoxypyrimidin-5-yl)-1-((5-(trifluoromethyl)-1H-pyrazol-3-yl)methyl)-3-(4,5,6-trifluoropyridin-2-yl)urea] are over 100 µM, 100% and 0.21 µM.
The corresponding values for `COc1ncc(N(Cc2cc(C(F)(F)F)[nH]n2)C(=O)Nc2cccc(C(F)(F)F)n2)cn1` [Example 225, 1-(2-methoxypyrimidin-5-yl)-1-((5-(trifluoromethyl)-1H-pyrazol-3-yl)methyl)-3-(6-(trifluoromethyl)pyridin-2-yl)urea] are over 100 µM, 105% and 0.21 µM.
Regarding `O=C(Nc1cc(F)c(F)c(F)c1)c1ccc(F)c(S(=O)(=O)N2CCC(O)CC2)c1` [NVR, reference compound], in data set [2] (read-out: IC50), the IC50 is 0.34 µM. This compound gave an EC50 in data set [3] of 3.6 µM.
